According to PubChem BioAssay (NCI):
Where “and” joins values, the source holds several entries; their conditions need not be identical. Equal entries are not always repeated.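 Following 48 hours of exposure in 96-well plates, responses at five concentrations were used to interpolate endpoints linearly. Here, GI50 denotes the concentration required for 50% inhibition of growth. The concentration for full growth arrest is given as TGI.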

Columns and labels:
Assay in all cases: inhibition of tumour cell growth, NCI panel, 48 h
786-0 renal = test system: 786-0 renal
A498 renal = test system: A498 renal
MDA-MB-435 = test system: MDA-MB-435
MOLT-4 leukemia = test system: MOLT-4 leukemia
NCI-H226 lung = test system: NCI-H226 lung
NCI-H460 lung = test system: NCI-H460 lung
OVCAR-3 ovarian = test system: OVCAR-3 ovarian
KM12 colon = test system: KM12 colon
UACC-257 melanoma = test system: UACC-257 melanoma
RXF 393 renal = test system: RXF 393 renal

Compound | TGI (786-0 renal) | TGI (A498 renal) | TGI (MDA-MB-435) | TGI (MOLT-4 leukemia) | TGI (NCI-H226 lung) | TGI (NCI-H460 lung) | TGI (OVCAR-3 ovarian) | TGI (KM12 colon) | TGI (UACC-257 melanoma) | GI50 (786-0 renal) | GI50 (KM12 colon) | GI50 (MDA-MB-435) | GI50 (MOLT-4 leukemia) | GI50 (OVCAR-3 ovarian) | GI50 (RXF 393 renal) | TGI (RXF 393 renal) | GI50 (UACC-257 melanoma) | GI50 (A498 renal) | GI50 (NCI-H226 lung) | GI50 (NCI-H460 lung)
COC(=O)C1(Cc2cccc(Cl)c2)CCCCCCN1C(=O)c1ccccc1 (stereo not given) | 26.3 µM | 29 µM | 51.8 µM | 32.1 µM | 48.8 µM | 33.8 µM | 20.4 µM | – | – | – | – | – | – | – | – | – | – | – | – | –
O=C1C2=C(c3ccccc31)C(c1ccccc1Cl)N1C(=O)CSC1=N2 (stereo not given) | > 100 µM | > 100 µM | – | > 100 µM | > 100 µM | > 100 µM | > 100 µM | > 100 µM | > 100 µM | – | – | – | – | – | – | – | – | – | – | –
O=[N+]([O-])c1ccc2c(N=Nc3c(O)ccc4ccccc34)c(O)cc(S(=O)(=O)O)c2c1 | 50 µM and > 100 µM | – | 50 µM and > 100 µM | 50 µM and > 100 µM | 50 µM | > 100 µM | 50 µM and > 100 µM | 50 µM and > 100 µM | 50 µM and > 100 µM | 30.7 µM | 49.9 µM | 47.5 µM | 15.7 µM | 9.36 µM | 27.1 µM | 50 µM and > 100 µM | 32 µM | – | – | –
COC1=C(OC)CCC(/C(C#N)=C/c2ccc(OC)c(OC)c2)=C1 | > 100 µM | > 100 µM | – | > 100 µM | > 100 µM | > 100 µM | > 100 µM | > 100 µM | > 100 µM | – | – | – | – | – | – | 92.9 µM | – | – | – | –
CCNCC(O)c1ccc(N)c([N+](=O)[O-])c1 (stereo not given) | > 100 µM | > 100 µM | > 100 µM | > 100 µM | > 100 µM | > 100 µM | > 100 µM | – | > 100 µM | – | – | – | – | – | – | – | – | – | – | –
O=c1nc2cc(-c3ccccc3)[nH]c2nn1-c1c(Cl)cc(Cl)cc1Cl | > 100 µM | 89.7 µM | – | 64.5 µM | 60.9 µM | > 100 µM | 54.2 µM | 39.2 µM | 79.6 µM | – | – | – | – | – | – | – | – | – | – | –
CCOC(=O)C(C)(C)Oc1ccc2c(-c3ccc(Cl)cc3)cc(=O)oc2c1 | > 100 µM | > 100 µM | – | > 100 µM | > 100 µM | > 100 µM | > 100 µM | – | > 100 µM | – | – | – | – | – | – | > 100 µM | – | – | – | –
CCC1(OC(C)=O)C(=O)OCc2c1cc1n(c2=O)Cc2cc3ccccc3nc2-1 (stereo not given) | > 31.1 µM | 25.5 µM | – | – | 4.55 µM | 7.15 µM | > 100 µM | > 100 µM | > 100 µM | – | – | – | – | – | – | > 22.6 µM | – | – | – | –
COc1ccc(NC(=O)C(=O)C2NC(=S)NC2=O)c(OC)c1 (stereo not given) | > 100 µM | > 100 µM | – | > 100 µM | > 100 µM | > 100 µM | > 100 µM | > 100 µM | > 100 µM | – | – | – | – | – | – | > 100 µM | – | – | – | –
CCc1cccc(C)c1NC(=O)NS(=O)(=O)c1ccc(C)cc1 | > 100 µM | > 100 µM | – | > 100 µM | – | > 100 µM | > 100 µM | > 100 µM | > 100 µM | – | – | – | – | – | – | > 100 µM | – | – | – | –
O=[N+]([O-])c1ccccc1C1N2CCCCC2[C@@H]2c3[nH]c4ccccc4c3CCN12 (stereo not given in full) | 29.7 µM | 25.2 µM | – | 28.1 µM | – | 34.7 µM | 63.3 µM | – | 26.7 µM | – | – | – | – | – | – | 26.4 µM | – | – | – | –
CC(=O)Nc1ccc(-c2nnc(SCC(=O)Nc3ccc(C)cc3)o2)cc1 | 33.4 µM | – | – | > 100 µM | 52.4 µM | 42.7 µM | 37.2 µM | 37.8 µM | 42 µM | – | – | – | – | – | – | 33.2 µM | – | – | – | –
C/C(=N\Nc1ccc([N+](=O)[O-])cc1)C(=O)N(C)Nc1ccccc1 | > 100 µM | > 100 µM | – | > 100 µM | > 100 µM | > 100 µM | > 100 µM | 64.6 µM | > 100 µM | – | – | – | – | – | – | > 100 µM | – | – | – | –
Cc1cc(C)nc(NS(=O)(=O)c2ccc(NC(=O)c3cccc4cc5ccccc5nc34)cc2)n1 | > 100 µM | 50.5 µM | – | > 100 µM | 46.5 µM | > 100 µM | 65.3 µM | 84.9 µM | > 100 µM | – | – | – | – | – | – | > 100 µM | – | – | – | –
COc1ccc(C2S/C(=C\c3ccc(OC)cc3OC)C(=O)N2NC(=O)Cc2ccccc2)cc1 (stereo not given) | > 100 µM | > 100 µM | – | > 100 µM | > 100 µM | > 100 µM | – | > 100 µM | > 100 µM | – | – | – | – | – | – | > 100 µM | – | – | – | –
CCN(CC)CCCNC(=O)Cc1ccccc1Nc1c(Cl)cccc1Cl | 21.8 µM | – | – | 28 µM | 38.5 µM | – | 31.5 µM | 39.3 µM | 13.2 µM | – | – | – | – | – | – | 30.6 µM | – | – | – | –
Cc1ccc(Nc2ccc(Nc3ccc(C)cc3)c3c2C(=O)c2c(O)ccc(O)c2C3=O)cc1 | > 100 µM | > 100 µM | – | > 100 µM | – | > 100 µM | > 100 µM | > 100 µM | > 100 µM | – | – | – | – | – | – | > 100 µM | – | – | – | –
CC[C@@H]1OC2(C)CC(S(=O)(=O)c3ccccc3)CC1O2 (stereo not given in full) | > 100 µM | – | – | > 100 µM | > 100 µM | > 100 µM | > 100 µM | > 100 µM | > 100 µM | – | – | – | – | – | – | > 100 µM | – | – | – | –
Fc1ccccc1C1CC(C(c2ccccc2)c2ccccc2)=Nc2ccccc2S1 (stereo not given) | 16.2 µM | 20 µM | – | 11 µM | 32.6 µM | 23.2 µM | 24.4 µM | 23.1 µM | 30.6 µM | – | – | – | – | – | – | 17.2 µM | – | – | – | –
COc1ccc(O)c2c1C(=O)CCCC2=O | > 100 µM | > 100 µM | – | > 100 µM | – | > 100 µM | > 100 µM | > 100 µM | > 100 µM | – | – | – | – | – | – | – | – | – | – | –
CC(=O)/C(C)=N/N/C(N)=N\S(=O)(=O)c1cc(C(=O)Nc2ccccc2)c(Cl)cc1SCc1ccccc1 | > 100 µM | > 100 µM | > 100 µM | 56.3 µM | > 100 µM | 79.3 µM | > 100 µM | > 100 µM | > 100 µM | 0.766 µM | 60.2 µM | 34.4 µM | 3.73 µM | > 100 µM | – | – | 34.8 µM | 55.9 µM | 66.7 µM | 18 µM
COc1ccc(/C=C\c2cc(OC)c(OC)c(OC)c2)c(NS(=O)(=O)c2ccc(C)cc2)c1O | 30.2 µM | 0.0805 µM | 0.0621 µM | > 62.9 µM | – | > 37.9 µM | 1.65 µM | – | > 100 µM | 0.129 µM | 0.0383 µM | 0.0208 µM | 0.0421 µM | 0.03 µM | – | – | 17.8 µM | 0.022 µM | – | 0.0351 µM
COC(=O)C1=C(C(=O)OC)C2(C(=O)OC)OC1(OC)C(C1(C(=O)OC)C(C(=O)OC)=C1C(=O)OC)=C2C(=O)OC (stereo not given) | > 100 µM | – | – | > 100 µM | > 100 µM | > 100 µM | > 100 µM | > 100 µM | > 100 µM | – | – | – | – | – | – | > 100 µM | – | – | – | –
